Source: US20250326771A1, “PIPERAZINE DERIVATIVES USEFUL IN HIV THERAPY” (VIIV HEALTHCARE COMPANY, priority 2022, published 2025)

Assays:
cIAP1-BIR2 = cIAP1-BIR2 (Homo sapiens (Human), UniProt Q13490); assay: BIR binding assay (FRET competition), cIAP1 BIR2
In short: (§1)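 His-tagged domains (50 nM cIAP1-BIR3, 325 nM cIAP2-BIR2, 325 nM cIAP1-BIR2, 100 nM XIAP-BIR3) compete with compounds for a 200 nM AlexaFluor647-labelled SMAC/DIABLO peptide in HEPES buffer, pH 7.4, for 60 min. Then 2 nM Eu-W1024 is added for 30 min. The 615/665 nm ratio is fit by four-parameter fit to give IC50.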

cIAP2-BIR2 = cIAP2-BIR2 (Homo sapiens (Human), UniProt Q13489); assay: BIR binding assay (FRET competition), cIAP2 BIR2
Sequence of cIAP2-BIR2 (Q13489 158-242): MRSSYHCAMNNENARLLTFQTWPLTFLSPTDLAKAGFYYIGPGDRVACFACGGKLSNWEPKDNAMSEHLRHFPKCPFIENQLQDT
In short: as §1

cIAP2-BIR3 = cIAP2-BIR3 (Homo sapiens (Human), UniProt Q13489); assay: BIR binding assay (FRET competition), cIAP2 BIR3; conditions: for cIAP2 BIR3 vs BIR2 separation window: fold separation (FS) for cIAP2
Sequence of cIAP2-BIR3 (Q13489 238-349): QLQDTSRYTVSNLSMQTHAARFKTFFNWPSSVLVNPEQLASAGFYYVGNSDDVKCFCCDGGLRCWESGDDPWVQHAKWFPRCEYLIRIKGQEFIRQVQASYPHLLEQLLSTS

cIAP1-BIR3 = cIAP1-BIR3 (Homo sapiens (Human), UniProt Q13490); assay: BIR binding assay (FRET competition), cIAP1 BIR3; conditions: for cIAP1 BIR3 vs BIR2 separation window: fold separation (FS) for cIAP1
Sequence of cIAP1-BIR3 (Q13490 253-363): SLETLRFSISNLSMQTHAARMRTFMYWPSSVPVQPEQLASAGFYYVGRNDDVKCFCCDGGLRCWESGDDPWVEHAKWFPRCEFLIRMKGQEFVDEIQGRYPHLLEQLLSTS
In short: as §1

XIAP-BIR3 = XIAP-BIR3 (Homo sapiens (Human), UniProt P98170); assay: BIR binding assay (FRET competition), XIAP BIR3; conditions: for XIAP BIR3 vs BIR2 separation window: fold separation (FS) for XIAP
Sequence of XIAP-BIR3 (P98170 241-356): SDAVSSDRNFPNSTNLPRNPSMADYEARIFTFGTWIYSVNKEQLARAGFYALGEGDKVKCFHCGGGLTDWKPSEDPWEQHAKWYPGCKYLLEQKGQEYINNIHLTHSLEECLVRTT
In short: as §1

XIAP-BIR2 = XIAP-BIR2 (Homo sapiens (Human), UniProt P98170); assay: BIR binding assay (FRET competition), XIAP BIR2; conditions: FRET competition binding; read-out: XIAP BIR2 (pIC50) (converted)
Sequence of XIAP-BIR2 (P98170 124-240): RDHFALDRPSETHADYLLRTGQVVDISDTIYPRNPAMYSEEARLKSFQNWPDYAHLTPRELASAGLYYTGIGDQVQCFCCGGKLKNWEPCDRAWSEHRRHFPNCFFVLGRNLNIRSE
In short: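 Compounds in a 15-point, 3-fold series competed with an AlexaFluor647 SMAC peptide (AVPIAQKSE, 200 nM) for 200 nM His-tagged XIAP-BIR2 over 60 min in pH 7.4 HEPES/CHAPS/DTT buffer. Eu-W1024 (2 nM) was then added for 30 min. IC50 and pIC50 were derived from the 615 nm/665 nm emission ratio by variable-slope fit.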

[1] = test system: Jurkat HIV-luciferase clones; assay: Jurkat latency reversal assay; format: cell-based; conditions: Homo sapiens, 48 h; Jurkat latency reversal assay potency; read-out: Jurkat pEC50 (converted)
In short: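 Latency reversal was scored as provirus-driven luciferase luminescence in pooled Jurkat HIV-luc clones after 48 h compound exposure at 37° C. EC50 and maximal activation over vehicle were fitted with a four-parameter logistic model.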

Sequence of cIAP1-BIR2 (Q13490 173-257): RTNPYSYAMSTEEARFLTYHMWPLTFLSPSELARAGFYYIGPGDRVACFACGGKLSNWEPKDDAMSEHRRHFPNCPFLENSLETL

SMILES	IC50 (cIAP1-BIR2) [nM]	IC50 (cIAP2-BIR2) [nM]	IC50 (cIAP2-BIR3) [nM]	cIAP2 BIR3 vs BIR2 separation window (cIAP2-BIR3)	IC50 (cIAP1-BIR3) [nM]	cIAP1 BIR3 vs BIR2 separation window (cIAP1-BIR3)	IC50 (XIAP-BIR3) [nM]	XIAP BIR3 vs BIR2 separation window (XIAP-BIR3)	IC50 (XIAP-BIR2) [nM]	EC50 [1] [nM]
C[C@@H]1CN(CC(=O)N2CC(C)(C)c3[nH]c(=O)c(Cc4ccc(F)cc4)cc32)[C@@H](CN2CCO[C@H](COCc3c(F)c(F)c(COC[C@@H]4CN(C[C@H]5CN[C@H](C)CN5CC(=O)N5CC(C)(C)c6[nH]c(=O)c(Cc7ccc(F)cc7)cc65)CCO4)c(F)c3F)C2)CN1 [Example 85, 1,1′-(2,2′-((3R,3′R,6R,6′R)-(((2S,2'S)-((((perfluoro-1,4-phenylene)bis(methylene))bis(oxy))bis(methylene))bis(morpholine-2,4-diyl))bis(methylene))bis(3-methylpiperazine-6,1-diyl))bis(acetyl))bis(6-(4-fluorobenzyl)-3,3-dimethyl-1,2,3,4-tetrahydro-5H-pyrrolo[3,2-b]pyridin-5-one)]	3160 to 10000	3160 to 10000	15.8 to 31.6	+++ (10,000>FS>1,000)	7.94 to 15.8	+++ (10,000>FS>1,000)	31.6 to 501	++++ (FS>10,000)	10000 to 51300	0.49 to 12.6
C[C@@H]1CN(CC(=O)N2CC(C)(C)c3[nH]c(=O)c(Cc4ccc(F)cc4)cc32)[C@@H](CN2CCO[C@H](COc3cccc(OC[C@@H]4CN(C[C@H]5CN[C@H](C)CN5CC(=O)N5CC(C)(C)c6[nH]c(=O)c(Cc7ccc(F)cc7)cc65)CCO4)c3Br)C2)CN1 [Example 87, 1,1′-(2,2′-((3R,3′R,6R,6′R)-(((2S,2'S)-(((2-bromo-1,3-phenylene)bis(oxy))bis(methylene))bis(morpholine-2,4-diyl))bis(methylene))bis(3-methylpiperazine-6,1-diyl))bis(acetyl))bis(6-(4-fluorobenzyl)-3,3-dimethyl-1,2,3,4-tetrahydro-5H-pyrrolo[3,2-b]pyridin-5-one)]	1000 to 3160	3160 to 10000	7.94 to 15.8	+++ (10,000>FS>1,000)	7.94 to 15.8	+++ (10,000>FS>1,000)	7.94 to 15.8	++++ (FS>10,000)	10000 to 51300	0.49 to 12.6
C[C@@H]1CN(CC(=O)N2CC(C)(C)c3[nH]c(=O)c(Cc4ccc(F)cc4)cc32)[C@@H](CN2CCO[C@H](COc3cccc(OC[C@@H]4CN(C[C@H]5CN[C@H](C)CN5CC(=O)N5CC(C)(C)c6[nH]c(=O)c(Cc7ccc(F)cc7)cc65)CCO4)c3Cl)C2)CN1 [Example 88, 1,1′-(2,2′-((3R,3′R,6R,6′R)-(((2S,2'S)-(((2-chloro-1,3-phenylene)bis(oxy))bis(methylene))bis(morpholine-2,4-diyl))bis(methylene))bis(3-methylpiperazine-6,1-diyl))bis(acetyl))bis(6-(4-fluorobenzyl)-3,3-dimethyl-1,2,3,4-tetrahydro-5H-pyrrolo[3,2-b]pyridin-5-one)]	1000 to 3160	1000 to 3160	7.94 to 15.8	+++ (10,000>FS>1,000)	7.94 to 15.8	+++ (10,000>FS>1,000)	7.94 to 15.8	++++ (FS>10,000)	10000 to 51300	0.49 to 12.6
C[C@@H]1CN(CC(=O)N2CC(C)(C)c3[nH]c(=O)c(Cc4ccc(F)cc4)cc32)[C@@H](CN2CCO[C@H](C(=O)N[C@H]3CC[C@H](NC(=O)[C@@H]4CN(C[C@H]5CN[C@H](C)CN5CC(=O)N5CC(C)(C)c6[nH]c(=O)c(Cc7ccc(F)cc7)cc65)CCO4)CC3)C2)CN1 [Example 92, (2S,2'S)-N,N′-((1S,4S)-cyclohexane-1,4-diyl)bis(4-(((2R,5R)-1-(2-(6-(4-fluorobenzyl)-3,3-dimethyl-5-oxo-2,3,4,5-tetrahydro-1H-pyrrolo[3,2-b]pyridin-1-yl)-2-oxoethyl)-5-methylpiperazin-2-yl)methyl)morpholine-2-carboxamide)]	1000 to 3160	1000 to 3160	7.94 to 15.8	+++ (10,000>FS>1,000)	1.38 to 7.94	+++ (10,000>FS>1,000)	7.94 to 15.8	++++ (FS>10,000)	10000 to 51300	12.6 to 63.1
